Among the data in ChEMBL document CHEMBL1201862, “PubChem BioAssay data set” (2004) are IC50 values, retold here.

One assay has as its target Nonstructural protein 1 (Influenza A virus, UniProt Q194T2). It is filed as functional, Influenza A virus (A/California/07/2009(H1N1)).
The target in assay [1] is T1, Sentrin-specific protease 7 (Homo sapiens, UniProt Q9BQF6).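 Note: Luminescence-based dose-response confirmation of ultra-high-throughput screening hits, measuring inhibition of SENP7.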
T1 sequence (Q9BQF6 whole entry): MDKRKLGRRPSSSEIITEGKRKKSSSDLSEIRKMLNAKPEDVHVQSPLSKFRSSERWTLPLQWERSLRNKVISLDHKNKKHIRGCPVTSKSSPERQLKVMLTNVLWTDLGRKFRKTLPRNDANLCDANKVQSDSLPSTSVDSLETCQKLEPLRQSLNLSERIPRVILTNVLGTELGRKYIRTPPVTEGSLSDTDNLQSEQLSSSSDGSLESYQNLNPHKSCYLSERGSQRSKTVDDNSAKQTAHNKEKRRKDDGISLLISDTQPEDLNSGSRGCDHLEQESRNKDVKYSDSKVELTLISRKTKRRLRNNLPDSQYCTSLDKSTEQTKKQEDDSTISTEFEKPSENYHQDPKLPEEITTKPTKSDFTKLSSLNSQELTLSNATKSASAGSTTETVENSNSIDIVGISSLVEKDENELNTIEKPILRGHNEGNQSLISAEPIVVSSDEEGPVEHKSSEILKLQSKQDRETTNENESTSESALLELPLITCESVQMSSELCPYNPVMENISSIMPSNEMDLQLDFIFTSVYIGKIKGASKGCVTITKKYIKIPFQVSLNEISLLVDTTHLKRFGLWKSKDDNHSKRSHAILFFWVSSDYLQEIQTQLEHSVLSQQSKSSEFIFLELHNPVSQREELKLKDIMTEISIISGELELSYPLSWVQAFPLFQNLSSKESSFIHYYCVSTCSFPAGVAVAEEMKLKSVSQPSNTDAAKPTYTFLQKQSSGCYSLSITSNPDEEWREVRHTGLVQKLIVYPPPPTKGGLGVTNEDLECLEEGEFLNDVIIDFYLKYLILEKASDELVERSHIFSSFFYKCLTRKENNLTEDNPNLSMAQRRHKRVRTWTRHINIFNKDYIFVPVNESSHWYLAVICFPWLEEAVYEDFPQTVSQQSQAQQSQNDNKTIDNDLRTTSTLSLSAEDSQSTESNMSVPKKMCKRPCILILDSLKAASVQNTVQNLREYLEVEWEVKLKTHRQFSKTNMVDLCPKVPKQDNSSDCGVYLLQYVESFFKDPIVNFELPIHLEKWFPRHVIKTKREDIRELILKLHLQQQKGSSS
It is filed as functional.

The target of assay [2] is T2, Sentrin-specific protease 8 (Homo sapiens, UniProt Q96LD8).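 Note: luminescence read-out of SENP8 inhibition, dose-response confirmation following an ultra-high-throughput screen.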
T2 sequence (Q96LD8 whole entry): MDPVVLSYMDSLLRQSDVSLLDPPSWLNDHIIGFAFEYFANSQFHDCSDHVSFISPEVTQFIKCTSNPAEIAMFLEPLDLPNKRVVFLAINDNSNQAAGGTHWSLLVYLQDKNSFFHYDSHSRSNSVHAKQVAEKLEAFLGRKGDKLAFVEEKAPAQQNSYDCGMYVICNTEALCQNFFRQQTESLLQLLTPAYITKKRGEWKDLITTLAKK
Format: functional.

The nature of assay [3]: cytotoxicity in HEK-293T cells, dose response, cytotoxicity control for BCR NF-kB inhibitor project, luminescence, B-cell screen hits (AID 489021).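 Note: HEK-293T cells carrying an NF-kB luciferase reporter; cells exposed to compound for about 14 hours before viability readout.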 It is filed as functional, cell-based.
Assay [4] addresses T3, Apoptotic protease-activating factor 1 (Homo sapiens, UniProt O14727).
T3 sequence (O14727 whole entry): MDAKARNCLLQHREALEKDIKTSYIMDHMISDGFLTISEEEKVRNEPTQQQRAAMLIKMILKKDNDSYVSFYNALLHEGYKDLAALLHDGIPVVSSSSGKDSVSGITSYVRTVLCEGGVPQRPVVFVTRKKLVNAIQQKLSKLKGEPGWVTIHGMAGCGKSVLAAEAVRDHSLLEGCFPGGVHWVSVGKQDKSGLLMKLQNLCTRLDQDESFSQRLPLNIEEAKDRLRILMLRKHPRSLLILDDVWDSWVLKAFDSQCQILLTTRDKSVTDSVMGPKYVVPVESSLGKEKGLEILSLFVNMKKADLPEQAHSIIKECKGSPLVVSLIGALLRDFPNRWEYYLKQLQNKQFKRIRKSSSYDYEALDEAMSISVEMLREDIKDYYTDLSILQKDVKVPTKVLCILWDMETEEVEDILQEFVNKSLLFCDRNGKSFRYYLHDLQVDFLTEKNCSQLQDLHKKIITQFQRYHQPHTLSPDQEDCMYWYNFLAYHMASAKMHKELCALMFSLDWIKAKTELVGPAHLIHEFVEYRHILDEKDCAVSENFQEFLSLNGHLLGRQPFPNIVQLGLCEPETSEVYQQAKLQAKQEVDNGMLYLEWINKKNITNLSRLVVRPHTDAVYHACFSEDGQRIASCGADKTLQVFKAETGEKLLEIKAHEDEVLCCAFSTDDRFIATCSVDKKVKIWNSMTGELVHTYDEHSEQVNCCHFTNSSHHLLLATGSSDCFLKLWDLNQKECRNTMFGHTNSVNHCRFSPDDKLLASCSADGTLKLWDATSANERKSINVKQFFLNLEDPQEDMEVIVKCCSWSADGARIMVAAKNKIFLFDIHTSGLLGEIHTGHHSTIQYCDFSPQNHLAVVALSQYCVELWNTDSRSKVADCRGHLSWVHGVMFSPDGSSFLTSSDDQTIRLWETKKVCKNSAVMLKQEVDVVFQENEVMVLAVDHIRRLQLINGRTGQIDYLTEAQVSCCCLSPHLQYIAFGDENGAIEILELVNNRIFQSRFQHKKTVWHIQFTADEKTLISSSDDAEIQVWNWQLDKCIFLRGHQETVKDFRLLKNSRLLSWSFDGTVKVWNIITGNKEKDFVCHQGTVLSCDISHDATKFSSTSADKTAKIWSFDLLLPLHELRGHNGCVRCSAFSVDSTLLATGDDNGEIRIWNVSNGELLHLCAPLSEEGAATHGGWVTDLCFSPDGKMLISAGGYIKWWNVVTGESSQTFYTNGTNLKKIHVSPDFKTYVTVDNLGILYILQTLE
It is filed as functional.

Active and inactive are the calls of the source. Cut-off read from the data, not from the text of the source, for most assays here: actives have a measured IC50 and inactives only a lower limit.

By IC50 is commonly meant the concentration at which inhibition is half-maximal.

Sequence of Nonstructural protein 1 (Q194T2 whole entry): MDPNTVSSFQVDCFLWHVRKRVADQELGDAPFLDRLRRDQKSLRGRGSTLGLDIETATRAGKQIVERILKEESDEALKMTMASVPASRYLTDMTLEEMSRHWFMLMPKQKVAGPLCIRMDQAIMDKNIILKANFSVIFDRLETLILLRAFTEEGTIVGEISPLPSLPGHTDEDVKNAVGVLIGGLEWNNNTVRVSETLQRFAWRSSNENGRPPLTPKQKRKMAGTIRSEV

Consider `CC1CC(C)CN(C(=O)c2ccc3c(c2NCCO)C(=O)c2ccccc2C3=O)C1` (stereo not given), for which, on Nonstructural protein 1, the half-inhibitory concentration (IC50) was 13 µM (active).
Regarding `CCC(=O)N(C1=C(NC)C(=O)c2ccccc2C1=O)C(C)C`, the half-inhibitory concentration (IC50) was 33.2 µM (active) in assay [1], 25 µM (active) in assay [2], > 80 µM (inactive) in assay [3] and 20.8 µM (active) in assay [4].
